{"source": "patent US11661423B2", "about": "“Heterocyclic compounds as RET kinase inhibitors” (Cancer Research Technology Limited, priority 2016, dated 2023)"}
{"target": "RET (Homo sapiens (Human), UniProt P07949)", "sequence (P07949 29-1114)": "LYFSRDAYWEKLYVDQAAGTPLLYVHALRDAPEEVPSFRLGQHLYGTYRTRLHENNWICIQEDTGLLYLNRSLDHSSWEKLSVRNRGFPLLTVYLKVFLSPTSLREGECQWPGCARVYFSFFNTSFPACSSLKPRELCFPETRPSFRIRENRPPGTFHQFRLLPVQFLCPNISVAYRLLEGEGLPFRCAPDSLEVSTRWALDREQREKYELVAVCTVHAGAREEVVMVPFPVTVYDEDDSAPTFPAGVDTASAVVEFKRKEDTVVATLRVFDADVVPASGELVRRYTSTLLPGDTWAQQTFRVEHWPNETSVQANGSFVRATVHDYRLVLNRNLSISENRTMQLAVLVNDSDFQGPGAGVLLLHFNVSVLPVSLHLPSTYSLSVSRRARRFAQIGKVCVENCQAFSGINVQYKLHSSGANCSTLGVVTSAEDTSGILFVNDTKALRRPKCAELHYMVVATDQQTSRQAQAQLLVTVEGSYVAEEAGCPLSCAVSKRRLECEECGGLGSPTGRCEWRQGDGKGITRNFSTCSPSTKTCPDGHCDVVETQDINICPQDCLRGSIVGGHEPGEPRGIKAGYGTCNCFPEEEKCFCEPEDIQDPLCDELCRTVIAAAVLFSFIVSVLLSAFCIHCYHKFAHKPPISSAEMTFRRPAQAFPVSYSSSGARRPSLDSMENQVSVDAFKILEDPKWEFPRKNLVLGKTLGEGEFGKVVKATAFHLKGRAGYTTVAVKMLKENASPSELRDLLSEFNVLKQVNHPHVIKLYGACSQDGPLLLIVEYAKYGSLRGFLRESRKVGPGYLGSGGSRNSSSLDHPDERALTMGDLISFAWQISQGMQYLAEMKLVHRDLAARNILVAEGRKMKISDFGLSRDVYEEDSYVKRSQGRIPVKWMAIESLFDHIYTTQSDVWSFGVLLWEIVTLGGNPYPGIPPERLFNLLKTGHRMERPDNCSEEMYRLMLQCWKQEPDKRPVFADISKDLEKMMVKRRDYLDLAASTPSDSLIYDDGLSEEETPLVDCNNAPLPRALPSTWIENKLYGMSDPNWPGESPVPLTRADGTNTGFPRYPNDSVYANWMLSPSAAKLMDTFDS", "test": "RET enzyme assay (CisBio HTRF kinEASE)", "format": "biochemical"}
{"compound": "CC(C)(C)n1nc(-c2cc3ncccc3[nH]2)c2c(N)ncnc21", "note": "[1-tert-butyl-3-(1H-pyrrolo[3,2-b]pyridin-2-yl)pyrazolo[3,4-d]pyrimidin-4-amine]", "activity in the assays described in the Examples section": "did not exhibit the desired activity"}
{"compound": "Nc1ncnc2c1c(-c1[nH]c3ncccc3c1Cl)nn2CC(=O)O", "note": "[2-(4-amino-3-(3-chloro-1H-pyrrolo[2,3-b]pyridin-2-yl)-1H-pyrazolo[3,4-d]pyrimidin-1-yl)acetic acid]", "activity in the assays described in the Examples section": "did not exhibit the desired activity"}
{"compound": "CC(C)CCn1nc(-c2[nH]c3ccccc3c2Cl)c2c(N)ncnc21", "note": "[3-(3-Chloro-1H-indol-2-yl)-1-isopentyl-1H-pyrazolo[3,4-d]pyrimidin-4-amine]", "activity in the assays described in the Examples section": "did not exhibit the desired activity"}
{"compound": "Nc1ncnc2c1c(-c1[nH]c3ccccc3c1Cl)nn2CC1CCNC1", "note": "(centres unmarked) [3-(3-chloro-1H-indol-2-yl)-1-(pyrrolidin-3-ylmethyl)-1H-pyrazolo[3,4-d]pyrimidin-4-amine]", "activity in the assays described in the Examples section": "did not exhibit the desired activity"}
{"compound": "Cn1nc(-c2[nH]c3ncccc3c2Cl)c2c(N)ncnc21", "note": "[Example 65, 3-(3-Chloro-1H-pyrrolo[2,3-b]pyridin-2-yl)-1-methyl-pyrazolo[3,4-d]pyrimidin-4-amine]", "activity in the assays described in the Examples section": "did not exhibit the desired activity"}
